Results published in US10278966B2, “Method of isolating quaternary phenanthroindolizidine alkaloids with G-quaduplex DNA binding activity from Tylophra atrofolliculata, compositions comprising them and their medical use” (Macau University of Science and Technology, priority 2016, dated 2019).
“And” between values parts separate entries of the source, which are not always exact repeats. Equal values may be shown once.

System: human telomeric DNA G-quadruplex
Test: ESI-TOF-MS G-quadruplex binding assay
Conditions: for Relative binding affinity (RBA): negative ESI-TOF-MS, 10 uM human telomeric DNA (27 nt) and 10 uM compound in 10 mM ammonium acetate, RBA = sum of complexes peaks areas / sum of G-quadruplex DNA peaks areas, means ± SD
Protocol: UV data were recorded using a Beckman DU 800 UV/vis spectrophotometer. HRESIMS were recorded on an Agilent 6230 ESI-TOF mass spectrometer. NMR spectra were obtained from Bruker Ascend™ 600 spectrometer equipped with a cyro platform. Silica gel (Devisil®, 40˜63 micron) was used for column chromatography. Silica gel plates (Merck, DC Kieselgel 60 F254) was used for TLC analysis. High-performance liquid chromatography (HPLC) was carried out on Agilent 1100, Agilent 1200 and Waters 1525-2489 apparatus with a semi-preparative column (Waters, XBridge® Prep C18, 5 μm, 250×10 mm). 27 nt human telomeric DNA (M monoisotopic=8492.4 Da, Invitrogen) was used for G-quadruplex binding assay, which was the same as the one applied in Bai, L. P. et al. PloS One 2013, 8, e53962. The G-quadruplex binding analysis was conducted on a Bruker maXis impact mass spectrometer equipped with a kdScientific syringe pump (Holliston, Mass., USA). Solvents for HPLC separation analysis were HPLC grade.
Electrospray ionization time-of-flight mass spectrometry (ESI-TOF-MS) experiments were conducted on a Bruker maXis impact mass spectrometer in the negative mode (Bai, L. P., Plos One, 2013, 8, e53962; Bai, L. P., Sci. Rep. 2014, 4, 6767). The ESI source parameters were set as follows: end plate offset voltage of 500 V, capillary voltage of 3000 V, nebulizer of 1.0 bar, dry gas flow of 4.0 L/min at 160° C. The flow rate of sample injection into the mass spectrometer was set at 3 uL/min by using a kdScientific syringe pump. Each mass spectrum was obtained by an average of at least 30 scans. The mixture of a final concentration of 10 uM nucleic acid, i.e. human telomeric DNA (27 nt) (M=8496.6 Da), and 10 uM phenanthroindolizidine alkaloid in 10 mM ammonium acetate was directly injected into mass spectrometer. Data were obtained from three parallel samples of nucleic acid-drug complex solution, and then analyzed with the software of Compass DataAnalysis.
ESI-TOF-MS was utilized to investigate the non-covalent binding capacity of compounds 1 to 7, i.e. compounds of Formulas (2) to (8) with human telomeric DNA G-quadruplex formed by the human telomeric sequence. The human telomeric sequence is known and disclosed in Bai, L. P. et al. PloS One 2013, 8, e53962. 13aS-tylophorine compound 8, i.e. compound of Formula (9):
[drawing 17] and reference G-quadruplex binder sanguinarine were used as control (Bai, L. P., Anal. Bioanal. Chem., 2008, 392, 709; Bai, L. P., Bioorg. Med. Chem., 2006, 14, 5439). […] The relative binding affinities (RBA) of tested compounds were calculated to evaluate their binding capacities to human telomeric DNA G-quadruplex using the equation: RBA=Σcomplexes peaks areas/ΣG-quadruplex DNA peaks areas

SMILES	Relative binding affinity (RBA)	RBA value, times higher than that of 2-methoxylated/hydroxylated analogues compound 5 or 1 (ratio of RBA values)	potency in RBA value, times that of 3-demethyl analogue compound 2 (ratio of RBA values)
COc1cc2c(cc1O)c1cc3[n+](cc1c1cc(OC)c(OC)cc21)CCC3 [compound 1, 2-demethyldehydrotylophorine]	0.265 and 0.265 ± 0.008	–	–
COc1ccc2c(c1)c1cc(OC)c(OC)cc1c1c[n+]3c(cc21)CCC3 [compound 7, tylophoridicine D]	0.619 and 0.619 ± 0.016	at least 2 times	–
COc1cc2c3cc(OC)c(OC)cc3c3c[n+]4c(cc3c2cc1OC)CCC4 [compound 5, dehydrotylophorine]	0.290 and 0.290 ± 0.017	–	–
COc1cc2c3c(c4cc(OC)c(OC)cc4c2cc1OC)CN1CCC[C@H]1C3 [compound 8, 13aS-tylophorine, reference compound]	0.168 and 0.168 ± 0.007	–	–
COc1cc2c(cc1O)c1cc(OC)c(OC)cc1c1cc3[n+](cc21)CCC3 [compound 4, 6-demethyldehydrotylophorine]	0.238 and 0.238 ± 0.010	–	–
COc1cc2c(cc1O)c1cc(O)ccc1c1cc3[n+](cc21)CCC3 [compound 2, 3-demethylanhydrodehydrotylophorinidine]	0.122 and 0.122 ± 0.007	–	–
COc1ccc2c(c1)c1cc(O)c(OC)cc1c1c[n+]3c(cc21)CCC3 [compound 6, an hydrodehydrotylophorinidine]	0.437 and 0.437 ± 0.019	–	at least 3 times
COc1cc2c(cc1O)c1cc(OC)c(O)cc1c1cc3[n+](cc21)CCC3 [compound 3, 2-hydroxylanhydrodehydrotylophorinidine]	0.189 and 0.189 ± 0.002	–	–
